From patent US7531320B2, “Modulation of β-catenin/TCF-activated transcription” (priority 2003, dated 2009)

How the values were obtained:
NFAT reporter construct = assay: NFAT reporter assay in stably transfected Jurkat cells; assay type: cell-based
Experimental: FIG. 1. COMPOUND 1 inhibits β-catenin/TCF transcription. • A(i) and A(ii). Structures of COMPOUND 1, COMPOUND 2, COMPOUND 3, COMPOUND 4, and COMPOUND 5. • B(i) and B(ii). […] SW480 cells (10^5), (FIG. 1B(i)), were transfected with β-catenin/TCF luciferase construct. Cells were treated with COMPOUND 1 (1-64 μM). 24 hours post treatment lysates were prepared and subjected to dual luciferase assay. The data is represented in different form in FIG. 1B(ii). • C. COMPOUND 1 has no effect on NFAT reporter construct. Stably transfected Jurkat cells, right panel, with an NFAT reporter construct, were stimulated with PMA (10 ng/ml)/lonomycin (1 μg/ml), and treated with COMPOUND 1 (0.781-50 μM). 24 hours post treatment lysates were prepared and subjected to dual luciferase assay. All experiments were performed in duplicate and the values plotted as means +/−standard deviation. • D. CBP is the molecular target of COMPOUND 1. Nuclear extracts of SW480 cells were incubated with streptavidin-agarose beads coated with COMPOUND 2 (25 μM). Beads were washed 3 times and the eluted were subjected to gel electrophoresis and immunoblotting, with anti-CBP antibodies. […] The lysates were desalted using G-25 1 cc columns (Pharmacia) to remove the unbound ^14C-labeled-COMPOUND 1, and ^14C-labeled-COMPOUND 1 incorporation was measured.

[1] = tested on: nuclear β-catenin in HCT116 cells; assay: β-catenin immunofluorescence localization in HCT116 cells; assay type: cell-based, human; settings: 25 μM, 24 hours, to cytoplasmic membrane
Experimental: FIG. 4. COMPOUND 1 decreases nuclear β-catenin • A. β-catenin immunofluorescence microscopy. Log phase SW480 (left) and HCT116 (right) cells were fixed and stained with either anti-β-catenin red (upper panel, A) or anti-CBP (upper panel, B) green. The center panel represents the superimposed β-catenin and CBP in SW480 (left) and HCT116 (right) cells. […] 25 μg of total protein from the cell extracts of SW480 cells with or without 24 hr treatment of COMPOUND1 was used for detection of cytosolic and nuclear β-catenin.
Immunofluorescence was used to examine the localization of CBP and β-catenin in SW480 and HCT116 cells treated with COMPOUND 1 (25 μM) or control (0.5% DMSO). Cells at log phase were seeded and after 24 hours, the cells were treated with COMPOUND 1 or control. 24 hours post treatment, cells were fixed. The coverslips were incubated with antibodies raised against CBP (A-22) (Santa Cruz Biotechnology) and β-catenin (Transduction Laboratories), respectively. The slides were examined using a Nikon PCM 2000 Laser Scanning Confocal Microscope after the secondary antibodies conjugated to either FITC or TRITC (Jackson ImmunoResearch, Westgrove, Pa.) were applied.

SW480 cells = assay: cDNA microarray analysis (Clontech Atlas Human Cancer 1.2 Array) of SW480 cells; settings: 25 μM; for Ratio, fos-related antigen (FRA1): gene code A13c; for Ratio, epidermal growth factor receptor (EGFR): gene code A12d; for Ratio, placental calcium-binding protein; calvasculin: gene code B07l; for Ratio, proliferating cyclic nuclear antigen (PCNA); cyclin: gene code C13e; for Ratio, growth arrest &DNA-damage-inducible protein 153 (GADD153): gene code C05d; for Ratio, integrin alpha 3 (ITGA3); galactoprotein B3 (GAPB3): gene code D03e; for Ratio, low-affinity nerve growth factor receptor (NGF receptor; NGFR): gene code D03k; for Ratio, histone H4: gene code D08b; for Ratio, nuclear protein: gene code D09b; for Ratio, interleukin-1 beta precursor (IL-1; IL1B); catabolin: gene code E07f; for Ratio, macrophage inhibitory cytokine 1 (MIC1): gene code E09e; for Ratio, neutrophil gelatinase-associated lipocalin precursor (NGAL): gene code F04i; for Ratio, early growth response alpha (EGR alpha): gene code F06n; for Ratio, gravin: gene code F09g; for Ratio, glycyl tRNA synthetase: gene code F13k

## O=C1C(Cc2ccc(O)cc2)N2C(=O)CCN(C(=O)NCc3ccccc3)C2CN1Cc1cccc2ccccc12 (stereo not shown) [COMPOUND 1]
NFAT reporter construct; Jurkat cells, PMA/Ionomycin stimulated, 0.781-50 μM, 24 hours
  Effect on NFAT reporter construct: no effect
NFAT reporter construct; including NFAT, CRE and AP-1 (CRE, AP-1 data not shown)
  Selectivity versus other CBP-dependent reporters: very good selectivity
[1]
  Subcellular distribution of β-catenin: redistribution of β-catenin
SW480 cells; 8-hour treatment, […]
  Ratio, WSL protein + TRAMP + Apo-3 + death domain receptor 3 (DDR3): 1.84
  Ratio, integrin beta 4 (ITGB4); CD104 antigen: 1.84
SW480 cells; 8-hour treatment, gene code A05i
  Ratio, G2/mitotic-specific cyclin B1 (CCNB1): 0.57
SW480 cells; 8-hour treatment, gene code A10f
  Ratio, matrix metalloproteinase 11 (MMP11); stromelysin 3: 0.77
SW480 cells; 8-hour treatment
  Ratio, fos-related antigen (FRA1): 2.48
  Ratio, epidermal growth factor receptor (EGFR): 4.20
  Ratio, placental calcium-binding protein; calvasculin: 0.85
  Ratio, proliferating cyclic nuclear antigen (PCNA); cyclin: 0.38
  Ratio, growth arrest &DNA-damage-inducible protein 153 (GADD153): 6.92
  Ratio, integrin alpha 3 (ITGA3); galactoprotein B3 (GAPB3): 2.82
  Ratio, low-affinity nerve growth factor receptor (NGF receptor; NGFR): 1.77
  Ratio, histone H4: 0.73
  Ratio, nuclear protein: 2.11
  Ratio, interleukin-1 beta precursor (IL-1; IL1B); catabolin: 1.77
  Ratio, macrophage inhibitory cytokine 1 (MIC1): 6.94
  Ratio, neutrophil gelatinase-associated lipocalin precursor (NGAL): 5.85
  Ratio, early growth response alpha (EGR alpha): 3.15
  Ratio, gravin: 6.40
  Ratio, glycyl tRNA synthetase: 2.23
SW480 cells; 8-hour treatment, gene code A14n
  Ratio, brain glucose transporter 3 (GTR3): 1.94
SW480 cells; 8-hour treatment, gene code A14d
  Ratio, ERBB-3 receptor protein-tyrosine kinase precursor: 1.36
SW480 cells; 8-hour treatment, gene code B01m
  Ratio, linker for activation of T-cells (LAT): 0.74
SW480 cells; 8-hour treatment, gene code B12j
  Ratio, ras-related C3 botulinum toxin substrate 2; p21-rac2: 0.62
SW480 cells; 8-hour treatment, gene code B14n
  Ratio, retinoic acid receptor beta (RXR-beta; RXRB): 0.74
SW480 cells; 8-hour treatment, gene code B08h
  Ratio, PTPCAAX1 nuclear tyrosine phosphatase (PRL-1): 2.56
SW480 cells; 8-hour treatment, gene code C06f
  Ratio, MCM4 DNA replication licensing factor; CDC21 homolog: 0.38
SW480 cells; 8-hour treatment, gene code C09i
  Ratio, growth arrest &DNA-damage-inducible protein (GADD45): 5.36
SW480 cells; 8-hour treatment, gene code D03b
  Ratio, DNA-binding protein CPBP: 1.47
SW480 cells; 8-hour treatment, gene code D08e
  Ratio, integrin alpha 7B precursor (IGA7B): 1.69
SW480 cells; 8-hour treatment, gene code D08f
  Ratio, paxillin: 2.14
SW480 cells; 8-hour treatment, gene code D11c
  Ratio, T-cell surface glycoprotein CD3 epsilon subunit precursor: 0.60
SW480 cells; 8-hour treatment, gene code E01g
  Ratio, interleukin-13 precursor (IL-13); NC30: 0.88
SW480 cells; 8-hour treatment, gene code E03d
  Ratio, nerve growth factor-inducible PC4 homolog: 3.27
SW480 cells; 8-hour treatment, gene code F05e
  Ratio, ornithine decarboxylase: 1.82
SW480 cells; 8-hour treatment, gene code F07e
  Ratio, ribonucleoside-diphosphate reductase M2 subunit: 0.53
SW480 cells; 8-hour treatment, gene code F08f
  Ratio, type I cytoskeletal 18 keratin; cytokeratin 18 (K18): 1.59
SW480 cells; 24-hour treatment, gene code A01c
  Ratio, proto-oncogene c-jun; transcription factor AP-1: 1.34
SW480 cells; 24-hour treatment, gene code A02b
  Ratio, EB1 protein: 0.52
SW480 cells; 24-hour treatment, gene code A03g
  Ratio, c-myc binding protein MM-1: 0.43
SW480 cells; 24-hour treatment, gene code A06i
  Ratio, G1/S-specific cyclin D1 (CCND1); cyclin PRAD1; bcl-1 oncogene: 0.47
SW480 cells; 24-hour treatment, gene code A10k
  Ratio, cyclin-dependent kinase regulatory subunit 1 (CKS1): 0.28
SW480 cells; 24-hour treatment, gene code A11k
  Ratio, cyclin-dependent kinase regulatory subunit (CKS2): 0.40
SW480 cells; 24-hour treatment
  Ratio, fos-related antigen (FRA1): 1.99
  Ratio, epidermal growth factor receptor (EGFR): 2.51
  Ratio, placental calcium-binding protein; calvasculin: 0.50
  Ratio, proliferating cyclic nuclear antigen (PCNA); cyclin: 0.33
  Ratio, growth arrest &DNA-damage-inducible protein 153 (GADD153): 3.66
  Ratio, integrin alpha 3 (ITGA3); galactoprotein B3 (GAPB3): 2.99
  Ratio, low-affinity nerve growth factor receptor (NGF receptor; NGFR): 2.50
  Ratio, histone H4: 0.27
  Ratio, nuclear protein: 0.49
  Ratio, interleukin-1 beta precursor (IL-1; IL1B); catabolin: 1.98
  Ratio, macrophage inhibitory cytokine 1 (MIC1): 2.79
  Ratio, neutrophil gelatinase-associated lipocalin precursor (NGAL): 23.85
  Ratio, early growth response alpha (EGR alpha): 1.79
  Ratio, gravin: 8.46
  Ratio, glycyl tRNA synthetase: 2.02
SW480 cells; 24-hour treatment, gene code B02a
  Ratio, ADP/ATP carrier protein: 0.21
SW480 cells; 24-hour treatment, gene code B03m
  Ratio, 14-3-3 protein sigma; stratifin; epithelial cell marker protein 1: 0.45
SW480 cells; 24-hour treatment, gene code C01j
  Ratio, ets domain protein elk-3; NET; SRF accessory protein 2 (SAP2): 1.71
SW480 cells; 24-hour treatment, gene code C04b
  Ratio, tumor necrosis factor type 1 receptor associated protein (TRAP1): 0.73
SW480 cells; 24-hour treatment, gene code C05f
  Ratio, MCM2 DNA replication licensing factor; nuclear protein BM28: 0.23
SW480 cells; 24-hour treatment, gene code C04h
  Ratio, HHR23A; UV excision repair protein protein RAD23A: 0.36
SW480 cells; 24-hour treatment, gene code D06e
  Ratio, integrin beta 4 (ITGB4); CD104 antigen: 2.68
SW480 cells; 24-hour treatment, gene code D06m
  Ratio, cytosolic superoxide dismutase 1 (SOD1): 0.45
SW480 cells; 24-hour treatment, gene code D07b
  Ratio, high mobility group protein HMG2: 0.35
SW480 cells; 24-hour treatment, gene code D07m
  Ratio, glutathione synthetase (GSH synthetase; GSH-S): 0.34
SW480 cells; 24-hour treatment, gene code D12a
  Ratio, chromatin assembly factor 1 p48 subunit (CAF1 p48 subunit): 0.70
SW480 cells; 24-hour treatment, gene code D08h
  Ratio, N-sam; fibroblast growth factor receptor1 precursor (FGFR1): 10.39
SW480 cells; 24-hour treatment, gene code E02m
  Ratio, MHC class I truncated HLA G lymphocyte antigen: 1.36
SW480 cells; 24-hour treatment, gene code E02n
  Ratio, 78-kDa glucose regulated protein precursor (GRP 78): 2.35
SW480 cells; 24-hour treatment, gene code E04i
  Ratio, PDGF associated protein: 0.45
SW480 cells; 24-hour treatment, gene code E11l
  Ratio, CD59 glycoprotein precursor: 0.66
SW480 cells; 24-hour treatment, gene code F03e
  Ratio, fatty acid synthase: 0.34
SW480 cells; 24-hour treatment, gene code F04g
  Ratio, vimentin (VIM): 1.34
SW480 cells; 24-hour treatment, gene code F10c
  Ratio, inosine-5′-monophosphate dehydrogenase 2: 0.68
SW480 cells; 24-hour treatment, gene code F12l
  Ratio, BENE: 2.07
SW480 cells; 24-hour treatment, gene code F13j
  Ratio, elongation factor 2 (EF2): 0.55
SW480 cells; 24-hour treatment, gene code F09h
  Ratio, TRAM protein: 3.25
SW480 cells; 24-hour treatment, gene code F06d
  Ratio, L-lactate dehydrogenase H subunit (LDHB): 0.40
SW480 cells; 24-hour treatment, gene code G29
  Ratio, brain-specific tubulin alpha 1 subunit (TUBA1): 0.72
SW480 cells; 24-hour treatment, gene code G31
  Ratio, HLA class I histocompatibility antigen C-4 alpha subunit (HLAC): 1.29
SW480 cells; 24-hour treatment, gene code G45
  Ratio, 23-kDa highly basic protein; 60S ribosomal protein L13A: 0.65
SW480 cells; 8 hours
  Genes analyzed down-regulated by greater than 50%: ~0.3%
  Genes analyzed upregulated more than 2-fold: ~2%
